This passage reports IC50 results from patent US7855290B2, “Pyridine derivatives and pyrimidine derivatives (3)” (Eisai R&D Management Co., Ltd., priority 2005, dated 2010).

As usually defined, the IC50 is the concentration at which inhibition is half-maximal.

The structures appear in SMILES notation.

T1 sequence (P08581 956-1390 limits assumed): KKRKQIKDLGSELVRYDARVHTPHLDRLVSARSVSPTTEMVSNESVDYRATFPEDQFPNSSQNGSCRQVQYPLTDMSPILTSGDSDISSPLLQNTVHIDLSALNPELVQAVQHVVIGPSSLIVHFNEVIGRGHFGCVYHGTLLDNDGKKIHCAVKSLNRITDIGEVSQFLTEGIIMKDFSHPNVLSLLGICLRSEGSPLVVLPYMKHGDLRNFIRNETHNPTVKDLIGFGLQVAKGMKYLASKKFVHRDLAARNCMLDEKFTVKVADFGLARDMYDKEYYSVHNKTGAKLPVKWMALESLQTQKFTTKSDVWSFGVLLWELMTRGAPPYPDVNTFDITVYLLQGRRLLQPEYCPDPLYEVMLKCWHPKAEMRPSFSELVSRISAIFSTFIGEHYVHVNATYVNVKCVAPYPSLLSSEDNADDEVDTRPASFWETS

The assay concerns the target T1, His6-HGFR (HGFR cytoplasmic domain) (Homo sapiens, UniProt P08581).
T1 construct: made in house; host or cells: Sf9 insect cells (Spodoptera frugiperda), baculovirus, pFastBac-HT vector
Briefly: Inhibitory activity against HGFR tyrosine kinase activity (HTRF). The assay is classed as biochemical. The settings on record: biotin-poly(GT), ATP, 30° C. 10 min. From the text:
The cytoplasmic domain of HGFR (Genbank Accession No. J02958) is a 1.3 kb DNA fragment beginning with Lys974 and including a stop codon, and described by Park et al. (Proc. Natl. Acad. Sci. U.S.A. 84(18), 6379-6383, 1987). The DNA fragment was isolated from the human placental cDNA library (purchased from Clontech) by PCR (TaKaRa Ex Taq™ Kit, purchased from TaKaRa) using two kinds of primers (SEQ ID NO: 1,5′-[…]-3′ and SEQ ID NO: 2,5′-[…]-3′, purchased from Invitrogen). The DNA fragment was cloned into a baculovirus transplace vector (pFastBac™-HT (purchased from GIBCO BRL)) to produce a recombinant construct. […] EGFR was purchased from Sigma (Production No. E-2645).
To the suspension of Sf9 cells (3×10^8 cells) in SF-900II medium (purchased from Invitrogen) containing 2% FBS was added a solution of HGFR transfected baculovirus above (4 ml), followed by a shaking culture at 27° C. for 48 hrs. The cells infected with the HGFR transfected baculovirus were centrifuged at 1,000 rpm, 4° C. for 5 min to remove the supernatant. The precipitated infected cells were suspended in 80 ml of ice-cold PBS, and centrifuged at 1,000 rpm, 4° C. for 5 min to remove the supernatant. The precipitated infected cells were suspended in 40 ml of ice-cold Lysis Buffer (50 mM Tris-HCl (pH 8.5), 5 mM 2-mercaptoethanol, 100 mM KCl, 1 mM PMSF and 1% (v/v) NP-40). The suspension was centrifuged at 12,000 rpm, 4° C. for 30 min to provide a supernatant.
The supernatant was loaded onto an Ni-NTA agarose column (3 ml, purchased from Qiagen) equilibrated with 30 ml of Buffer A (20 mM Tris-HCl (pH 8.5), 5 mM 2-mercaptoethanol, 500 mM KCl, 20 mM imidazole and 10% (v/v) glycerol). The column was washed with 30 ml of Buffer A, 6 ml of Buffer B (20 mM Tris-HCl (pH 8.5), 5 mM 2-mercaptoethanol, 1 M KCl, and 10% (v/v) glycerol) and 6 ml of Buffer A in this order. Then, the column was eluted with 6 ml of Buffer C (20 mM Tris-HCl (pH 8.5), 5 mM 2-mercaptoethanol, 100 mM KCl, 100 mM imidazole, and 10% (v/v) glycerol) to provide a fraction. The fraction was entrapped in a dialysis membrane (purchased from Spectrum Laboratories), dialyzed at 4° C. overnight with 1 L of dialysis buffer (20 mM Tris-HCl (pH 7.5), 10% (v/v) glycerol, 1 mM dithiothreitol, 0.1 mM Na3VO4 and 0.1 mM EGTA), and stored at −80° C. until used. […] The VEGFR2 cytoplasmic domain, the FGFR1 cytoplasmic domain, and the PDGFRβ cytoplasmic domain were fused with six histidine at the N terminus by the similar method to produce respective recombinant proteins (His6-VEGFR2, His6-FGFR1, and His6-PDGFRβ).
To each well of a 96-well round plate (purchased from NUNC, Production No. 163320) were added 10 μl of a solution for kinase reaction (200 mM Hepes (pH 7.4), 80 mM MgCl2, 16 mM MnCl2 and 2 mM Na3VO4), 250 ng of biotinylated poly(Glu4: Tyr1) (biotin-poly(GT), purchased from Japan Schering) (6 μl, 15-fold diluted with distilled water), 30 ng of His6-HGFR (10 μl, 60-fold diluted with 0.4% BSA) and a test substance dissolved in dimethylsulfoxide (4 μl, 100-fold diluted with 0.1% BSA) to mess up to 30 μl. To the well was added 10 μl of 4 μM ATP (purchased from Sigma) diluted with distilled water to incubate at 30° C. for 10 min, followed by adding 10 μl of 500 mM EDTA (pH 8.0) (purchased from Wako Pure Chemicals) to provide a kinase reaction solution.
The tyrosine-phosphorylated biotin-poly(GT) was detected using the Homogenous Time-Resolved Fluorescence (HTRF) method (Analytical Biochemistry, 269, 94-104, 1999).
Background: Time-resolved FRET reads energy transfer from a long-lived donor to a nearby acceptor.
Compound `CN(C)C1CN(C(=O)Nc2cc(Oc3ccc(NC(=O)C4(C(=O)Nc5ccc(F)cc5)CC4)c(F)c3)ccn2)C1` [Example 76, N-(4-{[2-({[3-(Dimethylamino)azetidin-1-yl]carbonyl}amino)pyridin-4-yl]oxy}-2-fluorophenyl)-N′-(4-fluorophenyl)cyclopropane-1,1-dicarboxamide] showed an IC50 of 45 nM.

As to `CN1CCC(N2CCN(C(=O)Nc3cc(Oc4ccc(NC(=O)C5(C(=O)Nc6ccc(F)cc6)CC5)c(F)c4)ccn3)CC2)CC1` [Example 16, N-(2-Fluoro-4-{[2-({[4-(1-methylpiperidin-4-yl)piperazin-1-yl]carbonyl}amino)pyridin-4-yl]oxy}phenyl)-N′-(4-fluorophenyl)cyclopropane-1,1-dicarboxamide], inhibition was half-maximal at 64 nM (IC50).

As to `CN1CCN(C(=O)Nc2cc(Oc3ccc(NC(=O)C4(C(=O)Nc5ccc(F)cc5)CC4)c(F)c3)ccn2)CC1` [Example 64, N-{2-Fluoro-4-[(2-{[(1-methylpiperazin-4-yl)carbonyl]amino}pyridin-4-yl)oxy]phenyl}-N′-(4-fluorophenyl)cyclopropane-1,1-dicarboxamide], the half-maximal inhibitory concentration (IC50) was 58 nM.

The compound `O=C(Nc1cc(Oc2ccc(NC(=O)C3(C(=O)Nc4ccc(F)cc4)CC3)cc2F)ccn1)N1CCCC1` [Example 66, N-(4-Fluorophenyl)-N′-[3-fluoro-4-({2-[(pyrrolidin-1-ylcarbonyl)amino]pyridin-4-yl}oxy)phenyl]cyclopropane-1,1′-dicarboxamide] yielded an IC50 of 20 nM.

`CN(C)C1CCN(C(=O)Nc2cc(Oc3ccc(NC(=O)C4(C(=O)Nc5ccc(F)cc5)CC4)c(F)c3)ccn2)CC1` [Example 18, N-(4-{[2-({[4-(Dimethylamino)piperidin-1-yl]carbonyl}amino)pyridin-4-yl]oxy}-2-fluorophenyl)-N′-(4-fluorophenyl)cyclopropane-1,1-dicarboxamide] had a concentration for half-maximal inhibition (IC50) of 53 nM.

Take `COC1CN(C(=O)Nc2cc(Oc3ccc(NC(=O)C4(C(=O)Nc5ccc(F)cc5)CC4)c(F)c3)ccn2)C1` [Example 78, N-[2-Fluoro-4-[(2-{[(3-methoxyazetidin-1-yl)carbonyl]amino}pyridin-4-yl)oxy]phenyl}-N′-(4-fluorophenyl)cyclopropane-1,1-dicarboxamide]: the IC50 turned out to be 14 nM.

Turning to `O=C(Nc1cc(Oc2ccc(NC(=O)C3(C(=O)Nc4ccc(F)cc4)CC3)c(F)c2)ccn1)N1CCC(N2CCCC2)CC1` [Example 4, N-(4-Fluorophenyl)-N′-{2-fluoro-4-[(2-{[(4-pyrrolidin-1-ylpiperidin-1-yl)carbonyl]amino}pyridin-4-yl)oxy]phenyl}cyclopropane-1,1-dicarboxamide], the IC50 worked out at 45 nM.

`CN(C)C1CN(C2CCN(C(=O)Nc3cc(Oc4ccc(NC(=O)C5(C(=O)Nc6ccc(F)cc6)CC5)cc4)ccn3)CC2)C1` [Example 38, N-[4-({2-[({4-[3-(Dimethylamino)azetidin-1-yl]piperidin-1-yl}carbonyl)amino]pyridin-4-yl}oxy)phenyl]-N′-(4-fluorophenyl)cyclopropane-1,1-dicarboxamide] yielded an IC50 of 52 nM.

With `CN1CCN(C2CCN(C(=O)Nc3cc(Oc4cc(F)c(NC(=O)C5(C(=O)Nc6ccc(F)cc6)CC5)cc4F)ncn3)CC2)CC1` [Example 101, N-(2,5-Difluoro-4-{[4-({[4-(4-methylpiperazin-1-yl)piperidin-1-yl]carbonyl}amino)pyrimidin-6-yl]oxy}phenyl)-N′-(4-fluorophenyl)cyclopropane-1,1-dicarboxamide], inhibition was half-maximal at 72 nM (IC50).

Turning to `O=C(Nc1cc(Oc2ccc(NC(=O)C3(C(=O)Nc4ccc(F)cc4)CC3)cc2)ccn1)N1CCC1` [Example 70, N-[4-({2-[(Azetidin-1-ylcarbonyl)amino]pyridin-4-yl}oxy)phenyl]-N′-(4-fluorophenyl)cyclopropane-1,1-dicarboxamide], it took 19 nM to reach half-maximal inhibition (IC50).

In turn, `CN1CCN(C2CCN(C(=O)Nc3cc(Oc4ccc(NC(=O)C5(C(=O)Nc6ccccc6)CC5)c(F)c4)ccn3)CC2)CC1` [Example 54, N-(2-Fluoro-4-{[2-({[4-(4-methylpiperazin-1-yl)piperidin-1-yl]carbonyl}amino)pyridin-4-yl]oxy}phenyl)-N′-phenylcyclopropane-1,1-dicarboxamide] came in with a half-inhibitory concentration (IC50) of 64 nM.

`CN(C)[C@@H]1CCN(C(=O)Nc2cc(Oc3ccc(NC(=O)C4(C(=O)Nc5ccc(F)cc5)CC4)c(F)c3)ccn2)C1` [Example 47, N-(4-{[2-({[(3R)-3-(Dimethylamino)pyrrolidin-1-yl]carbonyl}amino)pyridin-4-yl]oxy}-2-fluorophenyl)-N′-(4-fluorophenyl)cyclopropane-1,1-dicarboxamide] gave an IC50 of 83 nM.

For `CN(C)[C@H]1CCN(C(=O)Nc2cc(Oc3ccc(NC(=O)C4(C(=O)Nc5ccccc5)CC4)c(F)c3)ccn2)C1` [Example 58, N-(4-{[2-({[(3S)-3-(Dimethylamino)pyrrolidin-1-yl]carbonyl}amino)pyridin-4-yl]oxy}-2-fluorophenyl)-N′-phenylcyclopropane-1,1-dicarboxamide], the IC50 is 85 nM.

`O=C(Nc1cc(Oc2ccc(NC(=O)C3(C(=O)Nc4ccc(F)cc4)CC3)c(F)c2)ccn1)N1CCC1` [Example 61, N-[4-({2-[(Azetidin-1-ylcarbonyl)amino]pyridin-4-yl]oxy}-2-fluorophenyl]-N′-(4-fluorophenyl)cyclopropane-1,1-dicarboxamide]: the IC50 is 15 nM.

In the case of `CN(C)[C@H]1CCN(C(=O)Nc2cc(Oc3ccc(NC(=O)C4(C(=O)Nc5ccc(F)cc5)CC4)cc3F)ccn2)C1` [Example 24, N-(4-{[2-({[(3S)-3-(Dimethylamino)pyrrolidin-1-yl]carbonyl}amino)pyridin-4-yl]oxy}-3-fluorophenyl)-N′-(4-fluorophenyl)cyclopropane-1,1-dicarboxamide], the 50% inhibitory concentration (IC50) came to 48 nM.

The compound `CN1CCC(N(C)C(=O)Nc2cc(Oc3cc(F)c(NC(=O)C4(C(=O)Nc5ccc(F)cc5)CC4)cc3F)ncn2)CC1` [Example 100, N-(2,5-Difluoro-4-{[4-({[methyl(1-methylpiperidin-4-yl)amino]carbonyl}amino)pyrimidin-6-yl]oxy}phenyl)-N′-(4-fluorophenyl)cyclopropane-1,1-dicarboxamide] had a concentration for half-maximal inhibition (IC50) of 85 nM.

The compound `O=C(Nc1cc(Oc2ccc(NC(=O)C3(C(=O)Nc4ccc(F)cc4)CC3)c(F)c2)ccn1)N1CCC(CN2CCC2)CC1` [Example 37, N-(4-{[2-({[4-(Azetidin-1-ylmethyl)piperidin-1-yl]carbonyl}amino)pyridin-4-yl]oxy}-2-fluorophenyl)-N′-(4-fluorophenyl)cyclopropane-1,1-dicarboxamide] returned an IC50 of 53 nM.

On to `O=C(Nc1cc(Oc2cc(F)c(NC(=O)C3(C(=O)Nc4ccc(F)cc4)CC3)cc2F)ccn1)N1CCC(O)CC1` [Example 105], for which the IC50 was found to be 15 nM.

As for `CN(C)CCN1CCN(C(=O)Nc2cc(Oc3ccc(NC(=O)C4(C(=O)Nc5ccc(F)cc5)CC4)cc3)ccn2)CC1` [Example 30, N-[4-({2-[({4-[2-(Dimethylamino)ethyl]piperazin-1-yl}carbonyl)amino]pyridin-4-yl}oxy)phenyl]-N′-(4-fluorophenyl)cyclopropane-1,1-dicarboxamide], the midpoint of inhibition, the IC50, lay at 44 nM.
